Target: T1, LuxR (Aliivibrio fischeri, UniProt P12746)
T1 sequence (P12746 1-250): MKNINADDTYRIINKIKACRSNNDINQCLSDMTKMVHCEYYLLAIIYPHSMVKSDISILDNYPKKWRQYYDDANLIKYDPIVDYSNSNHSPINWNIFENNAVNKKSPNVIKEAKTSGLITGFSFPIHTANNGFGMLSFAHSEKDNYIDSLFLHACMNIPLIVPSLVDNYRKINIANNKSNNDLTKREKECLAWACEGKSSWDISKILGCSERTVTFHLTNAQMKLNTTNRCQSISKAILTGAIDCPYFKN
Experiment: antagonism of […] 3-oxo-C6-HSL-induced bioluminescence, recombinant E. coli NM522 pSB401 LuxR biosensor
Assay type: cell-based

**Q.** How did the IC50 turn out when `CCCC(=O)Nc1ccccc1[N+](=O)[O-]` [compound 1, N-(2-nitrophenyl)butanamide] was run?
**A.** 58 µM

**Q.** Which IC50 does the source give for `CCCCCC(=O)Nc1ccccc1[N+](=O)[O-]` [compound 2, N-(2-nitrophenyl)hexanamide] here?
**A.** 94 µM

**Q.** Which IC50 does the source give for `CCCCCC(=O)Nc1ccccc1` [compound 12, N-Phenylhexanamide] here?
**A.** 79 µM
